Test results taken from US20250017859A1, “SOLID DISPERSION, PREPARATION METHOD, AND PHARMACEUTICAL COMPOSITION THEREOF” (Anxo Pharmaceutical Co., Ltd., priority 2023, published 2025).
In brackets after ≈: the same amount, converted by molar mass. Counter-ions that a name gives are not always drawn.

Legend:
[1] = Animal test: pharmacokinetics in fasted rats; assay type: in vivo; conditions: male, Sprague-Dawley, rat, plasma; rats under fasting state; dose equal to 10 mg/kg lurasidone HCl
Method: Lurasidone HCl is used as control group, experimental groups 14-17, 22 and 28 are used as tested group, the pharmacokinetics of each group is evaluated in male Sprague-Dawley rats.
Specifically, control group and experimental groups 14-17, 22 and 28 are administrated to rats under fasting state, respectively, in which the dosage contains 10 mg/kg of lurasidone HCl or the amount of lurasidone equal to 10 mg/kg lurasidone HCl. The number of experimental rats in each group is three, and the sampling time is 0, 0.25, 0.5, 1, 1.5, 2, 4, 6, 8 and 24 hours for analyzing pharmacokinetic results, which are shown in table 15.

[2] = Dissolution test 1: solubility by paddle method in pH 6.0+0.01% SDS medium; assay type: physicochemical
Method: Dissolution tests of experimental group 1 to experimental group 28 produced by spray drying or hot melt extrusion, control group lurasidone HCl and lurasidone are performed to analyze the solubility of each experimental group and control group lurasidone HCl and lurasidone. The dissolution test is performed by paddle method in 500 mL of medium with a pH value of 6.0+0.01% SDS, in which a rotation speed is 100 rpm and a sampling time is 60 minutes.
For comparing the applicability of the carriers suitable for solid dispersion including lurasidone, solid dispersion of comparative group 1 (including crospovidone, a kind of common carrier ingredient) is prepared according to Example 1.2 (HME) and the weight ratio of table 12, and the solubility is tested according the abovementioned method of Example 1.3.1.

[3] = cited from earlier work

Compound | AUC(0-inf) [1] [ng·h/mL] | Cmax [1] [ng/mL] | Solubility ([2]; Table 11, paddle method, 500 mL medium pH 6.0+0.01% SDS, 100 rpm, sampling time 60 minutes, HCl) [µg/mL] | Solubility ([2]; Table 12, carrier comparison PVAP vs crospovidone, method of Example 1.3.1, HCl) [µg/mL] | solubility in water [3] | Solubility ([2]; Table 11, paddle method, 500 mL medium pH 6.0+0.01% SDS, 100 rpm, sampling time 60 minutes) [µg/mL] | Solubility ([2]; Table 12, carrier comparison PVAP vs crospovidone, method of Example 1.3.1) [µg/mL]
O=C1[C@@H]2[C@H]3CC[C@H](C3)[C@@H]2C(=O)N1C[C@@H]1CCCC[C@H]1CN1CCN(c2nsc3ccccc23)CC1 [Lurasidone HCl] | 102 | 32 | 0.46 | 0.46 | – | – | –
O=C1[C@@H]2[C@H]3CC[C@H](C3)[C@@H]2C(=O)N1C[C@@H]1CCCC[C@H]1CN1CCN(c2nsc3ccccc23)CC1 [Lurasidone] | – | – | – | – | lower than 0.1 mg/mL | 0.09 (≈ 0.183 µM) | 0.09 (≈ 0.183 µM)
